How the values were obtained:
5-HT1A = biological target: T1, 5-HT1A (Homo sapiens, UniProt P08908); experiment: radioligand binding at 5-HT1A; conditions: 50 nM; radioligand [3H]8-OH-DPAT
T1 sequence (P08908 1-422): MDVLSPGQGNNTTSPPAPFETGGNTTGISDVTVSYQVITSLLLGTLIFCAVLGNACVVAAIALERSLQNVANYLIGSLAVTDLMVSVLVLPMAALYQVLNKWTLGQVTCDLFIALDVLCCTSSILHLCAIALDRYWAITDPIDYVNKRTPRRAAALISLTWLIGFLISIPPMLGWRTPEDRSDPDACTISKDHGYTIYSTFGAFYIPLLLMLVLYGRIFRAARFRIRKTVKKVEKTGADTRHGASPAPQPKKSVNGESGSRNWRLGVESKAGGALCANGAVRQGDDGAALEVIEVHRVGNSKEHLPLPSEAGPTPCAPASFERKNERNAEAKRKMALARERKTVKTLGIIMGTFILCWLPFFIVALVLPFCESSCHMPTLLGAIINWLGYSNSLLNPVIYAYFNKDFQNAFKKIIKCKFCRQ
Description: (§1) In vitro pharmacological assessment of this compound (N-(2-(1H-indol-3-yl)ethyl)-2-(1H-indol-3-yl)-N-methylethan-1-amine) was performed using radioligand binding at various serotonergic and sigma receptors. The results appear in table 2 below

5-HT2A = 5-HT2A (Homo sapiens, UniProt P28223); experiment: radioligand binding at 5-HT2A; conditions: 50 nM; radioligand [3H]ketanserin
Description: as §1

5-HT2B = 5-HT2B (Homo sapiens, UniProt P41595); experiment: radioligand binding at 5-HT2B; conditions: 50 nM; radioligand [3H]mesulergine
Description: as §1

5-HT2C = biological target: T2, 5-HT2C (Homo sapiens, UniProt P28335); experiment: radioligand binding at 5-HT2C; conditions: 50 nM; radioligand [3H]mesulergine
T2 sequence (P28335 33-458): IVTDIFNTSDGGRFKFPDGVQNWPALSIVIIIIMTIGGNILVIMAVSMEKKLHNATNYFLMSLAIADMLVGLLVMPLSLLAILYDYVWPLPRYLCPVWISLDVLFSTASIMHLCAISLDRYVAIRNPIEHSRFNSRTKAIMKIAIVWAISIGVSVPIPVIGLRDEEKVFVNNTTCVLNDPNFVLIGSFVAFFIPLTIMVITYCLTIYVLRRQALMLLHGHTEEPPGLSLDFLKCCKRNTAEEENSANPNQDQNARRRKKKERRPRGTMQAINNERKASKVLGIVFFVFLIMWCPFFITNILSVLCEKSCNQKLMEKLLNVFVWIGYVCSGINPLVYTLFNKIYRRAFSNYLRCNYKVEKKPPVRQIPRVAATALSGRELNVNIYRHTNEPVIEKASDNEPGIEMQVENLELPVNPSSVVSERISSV
Description: as §1

5-HT6 = 5-HT6 (Homo sapiens, UniProt P50406); experiment: radioligand binding at 5-HT6; conditions: 50 nM; radioligand [3H]LSD
Description: as §1

5-HT7 = 5-HT7 (Homo sapiens, UniProt P34969); experiment: radioligand binding at 5-HT7; conditions: 50 nM; radioligand [3H]LSD
Description: as §1

Sigma 1 = Sigma 1 (Homo sapiens, UniProt Q99720); experiment: radioligand binding at Sigma 1; conditions: 500 nM; radioligand [3H](+)pentazocine
Description: as §1

Sigma 2 = Sigma 2 (Homo sapiens, UniProt Q5BJF2); experiment: radioligand binding at Sigma 2; conditions: 500 nM; radioligand [3H]DTG + (+)pentazocine
Description: as §1

Chain of 5-HT6 (P50406 whole entry, species assumed): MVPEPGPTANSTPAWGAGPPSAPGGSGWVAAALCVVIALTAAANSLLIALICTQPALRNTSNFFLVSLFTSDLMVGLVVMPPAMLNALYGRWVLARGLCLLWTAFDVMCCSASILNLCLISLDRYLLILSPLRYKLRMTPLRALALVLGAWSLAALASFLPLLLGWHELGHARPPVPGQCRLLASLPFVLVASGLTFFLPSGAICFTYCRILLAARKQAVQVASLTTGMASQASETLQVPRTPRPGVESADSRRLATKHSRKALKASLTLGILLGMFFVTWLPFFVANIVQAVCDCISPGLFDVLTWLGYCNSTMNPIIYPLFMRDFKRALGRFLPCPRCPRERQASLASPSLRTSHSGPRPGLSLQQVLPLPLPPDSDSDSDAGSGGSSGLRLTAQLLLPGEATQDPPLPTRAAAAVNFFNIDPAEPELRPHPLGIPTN
Chain of 5-HT2A (P28223 whole entry): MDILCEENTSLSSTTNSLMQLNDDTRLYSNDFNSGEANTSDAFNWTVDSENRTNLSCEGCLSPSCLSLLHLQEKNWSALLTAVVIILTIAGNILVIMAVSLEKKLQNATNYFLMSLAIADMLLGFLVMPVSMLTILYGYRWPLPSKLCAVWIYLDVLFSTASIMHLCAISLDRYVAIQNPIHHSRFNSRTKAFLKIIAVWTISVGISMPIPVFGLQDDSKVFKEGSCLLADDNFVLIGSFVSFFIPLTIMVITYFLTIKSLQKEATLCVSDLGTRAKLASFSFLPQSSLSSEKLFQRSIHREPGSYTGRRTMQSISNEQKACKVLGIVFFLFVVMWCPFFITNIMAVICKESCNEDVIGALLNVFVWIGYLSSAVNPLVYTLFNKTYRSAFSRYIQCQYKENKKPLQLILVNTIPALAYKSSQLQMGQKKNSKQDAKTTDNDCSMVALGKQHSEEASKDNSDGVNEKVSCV
Chain of 5-HT7 (P34969 whole entry, species assumed): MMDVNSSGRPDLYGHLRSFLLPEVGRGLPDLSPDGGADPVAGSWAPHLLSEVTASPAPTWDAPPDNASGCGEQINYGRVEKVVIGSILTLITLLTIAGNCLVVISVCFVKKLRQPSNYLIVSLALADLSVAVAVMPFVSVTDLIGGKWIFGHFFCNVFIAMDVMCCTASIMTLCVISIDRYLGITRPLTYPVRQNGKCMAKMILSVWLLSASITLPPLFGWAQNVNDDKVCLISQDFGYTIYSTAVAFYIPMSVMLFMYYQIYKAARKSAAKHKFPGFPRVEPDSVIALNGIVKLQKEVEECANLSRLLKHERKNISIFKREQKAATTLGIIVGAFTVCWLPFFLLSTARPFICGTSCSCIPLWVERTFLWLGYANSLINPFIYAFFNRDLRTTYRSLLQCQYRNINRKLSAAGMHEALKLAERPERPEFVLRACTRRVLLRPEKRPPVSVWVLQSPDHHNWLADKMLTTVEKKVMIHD
Chain of 5-HT2B (P41595 whole entry, species assumed): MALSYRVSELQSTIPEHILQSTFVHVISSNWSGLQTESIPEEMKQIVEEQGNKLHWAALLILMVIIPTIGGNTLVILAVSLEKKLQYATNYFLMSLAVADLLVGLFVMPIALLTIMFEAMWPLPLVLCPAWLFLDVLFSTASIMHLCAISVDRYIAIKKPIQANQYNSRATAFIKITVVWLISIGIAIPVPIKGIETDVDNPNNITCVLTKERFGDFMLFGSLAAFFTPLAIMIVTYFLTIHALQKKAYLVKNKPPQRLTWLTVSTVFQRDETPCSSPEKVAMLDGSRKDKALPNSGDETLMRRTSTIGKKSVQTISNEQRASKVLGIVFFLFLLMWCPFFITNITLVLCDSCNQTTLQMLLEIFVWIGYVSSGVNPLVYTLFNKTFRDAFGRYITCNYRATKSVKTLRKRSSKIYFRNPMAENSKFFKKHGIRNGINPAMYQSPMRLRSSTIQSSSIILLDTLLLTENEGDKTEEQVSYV
Chain of Sigma 2 (Q5BJF2 whole entry): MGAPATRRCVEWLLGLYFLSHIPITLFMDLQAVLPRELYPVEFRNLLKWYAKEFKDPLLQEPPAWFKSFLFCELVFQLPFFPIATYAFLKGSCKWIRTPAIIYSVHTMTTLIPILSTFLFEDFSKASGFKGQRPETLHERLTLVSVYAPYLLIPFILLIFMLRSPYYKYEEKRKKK
Chain of Sigma 1 (Q99720 whole entry): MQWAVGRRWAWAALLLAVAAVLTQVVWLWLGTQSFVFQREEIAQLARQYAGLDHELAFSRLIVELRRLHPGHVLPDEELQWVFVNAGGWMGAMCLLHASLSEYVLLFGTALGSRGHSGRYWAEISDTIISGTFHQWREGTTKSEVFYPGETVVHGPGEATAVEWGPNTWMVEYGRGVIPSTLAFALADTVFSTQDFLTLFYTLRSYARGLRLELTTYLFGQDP

Structure (SMILES): CN(CCc1c[nH]c2ccccc12)CCc1c[nH]c2ccccc12 [Example 1, N-(2-(1H-indol-3-yl)ethyl)-2-(1H-indol-3-yl)-N-methylethan-1-amine]
- inhibition at 0.05 µM (5-HT1A): 70.9%
- inhibition at 0.05 µM (5-HT2A): 82.7%
- inhibition at 0.05 µM (5-HT2B): 96.8%
- inhibition at 0.05 µM (5-HT2C): 72.8%
- inhibition at 0.05 µM (5-HT6): 26.3%
- inhibition at 0.05 µM (5-HT7): 79.7%
- inhibition at 0.5 µM (Sigma 1): 21.7%
- inhibition at 0.5 µM (Sigma 2): 26.1%

— patent US20250382266A1, “5-HT2A RECEPTOR LIGANDS” (Psilera Inc., priority 2022, published 2025)
